ChEMBL document CHEMBL5316343, “Design, Synthesis, and Biological Evaluation of a Potent Dual EZH2-BRD4 Inhibitor for the Treatment of Some Solid Tumors” (J Med Chem, 2023)
Active and inactive are the calls of the source. The rule behind the calls is not given here.

Tests used:
[1] = target: T1, Histone-lysine N-methyltransferase EZH1 (Homo sapiens, UniProt Q92800); assay: Inhibition of EZH1 (unknown origin) by radiometric assay
T1 sequence (Q92800 whole entry): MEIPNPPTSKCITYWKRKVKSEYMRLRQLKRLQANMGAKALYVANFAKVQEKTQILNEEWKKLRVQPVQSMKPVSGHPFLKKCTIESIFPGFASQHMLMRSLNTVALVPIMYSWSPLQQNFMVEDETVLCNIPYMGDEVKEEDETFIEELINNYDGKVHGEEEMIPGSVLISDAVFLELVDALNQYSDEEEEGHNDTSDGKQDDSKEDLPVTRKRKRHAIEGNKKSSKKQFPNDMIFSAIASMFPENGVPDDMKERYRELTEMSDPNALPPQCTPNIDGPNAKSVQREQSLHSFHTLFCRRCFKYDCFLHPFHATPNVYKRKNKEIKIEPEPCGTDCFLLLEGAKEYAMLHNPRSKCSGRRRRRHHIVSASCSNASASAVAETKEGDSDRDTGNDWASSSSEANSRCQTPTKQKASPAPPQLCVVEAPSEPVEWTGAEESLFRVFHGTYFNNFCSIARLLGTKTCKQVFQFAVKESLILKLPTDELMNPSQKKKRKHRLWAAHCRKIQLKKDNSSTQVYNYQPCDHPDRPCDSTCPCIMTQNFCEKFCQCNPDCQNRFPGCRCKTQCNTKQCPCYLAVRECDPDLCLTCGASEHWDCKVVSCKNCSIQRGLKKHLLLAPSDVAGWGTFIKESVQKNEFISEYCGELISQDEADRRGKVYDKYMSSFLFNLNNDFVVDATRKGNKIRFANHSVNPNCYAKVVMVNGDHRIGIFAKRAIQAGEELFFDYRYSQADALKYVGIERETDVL

[2] = target: T2, Histone-lysine N-methyltransferase EZH2 (Homo sapiens, UniProt Q15910); assay: Inhibition of EZH2 in human MDA-MB-231 cells assessed as decrease in H3K27me3 level at 5 uM by fluorescence based analysis; assay type: cell-based
Target sequence in this assay (Q15910 whole entry, looked up): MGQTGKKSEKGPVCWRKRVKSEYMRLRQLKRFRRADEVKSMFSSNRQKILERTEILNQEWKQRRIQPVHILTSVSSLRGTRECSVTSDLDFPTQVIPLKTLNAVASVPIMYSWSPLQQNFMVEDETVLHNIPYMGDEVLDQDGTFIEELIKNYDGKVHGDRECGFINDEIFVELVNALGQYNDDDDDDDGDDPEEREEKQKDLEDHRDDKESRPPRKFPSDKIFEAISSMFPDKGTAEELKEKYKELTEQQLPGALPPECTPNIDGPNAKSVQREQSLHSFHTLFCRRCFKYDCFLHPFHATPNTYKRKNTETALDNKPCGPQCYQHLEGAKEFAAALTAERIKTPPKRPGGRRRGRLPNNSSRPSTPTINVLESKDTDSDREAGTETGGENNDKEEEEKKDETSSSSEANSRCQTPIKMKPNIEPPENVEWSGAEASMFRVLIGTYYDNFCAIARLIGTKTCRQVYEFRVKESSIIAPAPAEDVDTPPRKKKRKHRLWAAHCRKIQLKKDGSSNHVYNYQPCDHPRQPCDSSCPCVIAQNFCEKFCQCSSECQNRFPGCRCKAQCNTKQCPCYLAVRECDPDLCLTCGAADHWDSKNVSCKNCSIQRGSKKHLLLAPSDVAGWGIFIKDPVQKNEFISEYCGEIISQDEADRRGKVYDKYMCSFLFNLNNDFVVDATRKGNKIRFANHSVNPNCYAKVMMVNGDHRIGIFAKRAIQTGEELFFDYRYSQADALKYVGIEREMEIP

[3] = target: T2, Histone-lysine N-methyltransferase EZH2; assay: Inhibition of EZH2 in human BX-PC-3 cells assessed as decrease in H3K27me3 level at 5 uM by fluorescence based analysis; assay type: cell-based; conditions: BXPC-3
Target sequence in this assay (Q15910 whole entry, looked up): as above

[4] = target: T2, Histone-lysine N-methyltransferase EZH2; assay: Inhibition of EZH2 in human MDA-MB-231 cells assessed as increase in H3K27ac level at 5 uM by fluorescence based analysis; assay type: cell-based
Target sequence in this assay (Q15910 whole entry, looked up): as above

[5] = target: T2, Histone-lysine N-methyltransferase EZH2; assay: Inhibition of EZH2 in human BXPC-3 cells assessed as increase in H3K27ac level at 5 uM by fluorescence based analysis; assay type: cell-based
Target sequence in this assay (Q15910 whole entry, looked up): as above

MDA-MB-231 [6] = assay: Inhibition of colony formation in human MDA-MB-231 cells assessed as reduction in colony size at 0.1 to 2.5 uM incubated for 10 to 14 days in the presence of JQ1 by crystal violet staining based analysis; assay type: functional, cell-based; conditions: dose 0.1-2.5 µM, time 10-14 day
MDA-MB-231 [7] = assay: Inhibition of colony formation in human MDA-MB-231 cells assessed as reduction in number of cell colonies at 0.1 to 2.5 uM incubated for 10 to 14 days in the presence of JQ1 by crystal violet staining based analysis; assay type: functional; conditions: dose 0.1-2.5 µM, time 10-14 day
BXPC-3 [8] = assay: Inhibition of colony formation in human BXPC-3 cells assessed as reduction in colony size at 0.1 to 2.5 uM incubated for 10 to 14 days in the presence of JQ1 by crystal violet staining based analysis; assay type: functional, cell-based; conditions: dose 0.1-2.5 µM, time 10-14 day
BXPC-3 [9] = assay: Inhibition of colony formation in human BXPC-3 cells assessed as reduction in number of cell colony at 0.1 to 2.5 uM incubated for 10 to 14 days in the presence of JQ1 by crystal violet staining based analysis; assay type: functional; conditions: dose 0.1-2.5 µM, time 10-14 day
MDA-MB-231 [10] = assay: Inhibition of colony formation in human MDA-MB-231 cells incubated for 10 to 14 days in the presence of JQ1 by crystal violet staining based analysis; assay type: functional, cell-based; conditions: dose 0.1-2.5 µM, time 10-14 day
BXPC-3 [11] = assay: Inhibition of colony formation in human BXPC-3 cells incubated for 10 to 14 days in the presence of JQ1 by crystal violet staining based analysis; assay type: functional, cell-based; conditions: dose 0.1-2.5 µM, time 10-14 day
MDA-MB-231 [12] = assay: Inhibition of colony formation in human MDA-MB-231 cells assessed as reduction in colony size at 2.5 uM incubated for 10 to 14 days by crystal violet staining based analysis; assay type: functional, cell-based; conditions: time 10-14 day
MDA-MB-231 [13] = assay: Inhibition of colony formation in human MDA-MB-231 cells assessed as reduction in number of cell colonies at 2.5 uM incubated for 10 to 14 days by crystal violet staining based analysis; assay type: functional; conditions: time 10-14 day
BXPC-3 [14] = assay: Inhibition of colony formation in human BXPC-3 cells assessed as reduction in colony size at 2.5 uM incubated for 10 to 14 days by crystal violet staining based analysis; assay type: functional, cell-based; conditions: time 10-14 day
BXPC-3 [15] = assay: Inhibition of colony formation in human BXPC-3 cells assessed as reduction in number of cell colonies at 2.5 uM incubated for 10 to 14 days by crystal violet staining based analysis; assay type: functional; conditions: time 10-14 day
MDA-MB-231 [16] = assay: Induction of apoptosis in human MDA-MB-231 cells assessed as viable cells at 5 uM incubated for 48 hrs by Annexin V-FITC/PI staining based flow cytometric analysis (reference value: 97.63%); assay type: functional; conditions: read-out: Activity
MDA-MB-231 [17] = assay: Induction of apoptosis in human MDA-MB-231 cells assessed as early apoptotic cells at 5 uM incubated for 48 hrs by Annexin V-FITC/PI staining based flow cytometric analysis (reference value: 0.69%); assay type: functional
MDA-MB-231 [18] = assay: Induction of apoptosis in human MDA-MB-231 cells assessed as late apoptotic cells at 5 uM incubated for 48 hrs by Annexin V-FITC/PI staining based flow cytometric analysis (reference value: 1.06%); assay type: functional
MDA-MB-231 [19] = assay: Induction of apoptosis in human MDA-MB-231 cells assessed as necrotic cells at 5 uM incubated for 48 hrs by Annexin V-FITC/PI staining based flow cytometric analysis (reference value: 0.63%); assay type: functional
BXPC-3 [20] = assay: Induction of apoptosis in human BXPC-3 cells assessed as viable cells at 5 uM incubated for 48 hrs by Annexin V-FITC/PI staining based flow cytometric analysis (reference value: 90.70%); assay type: functional; conditions: read-out: Activity
BXPC-3 [21] = assay: Induction of apoptosis in human BXPC-3 cells assessed as early apoptotic cells at 5 uM incubated for 48 hrs by Annexin V-FITC/PI staining based flow cytometric analysis (reference value: 3.28 %); assay type: functional
BXPC-3 [22] = assay: Induction of apoptosis in human BXPC-3 cells assessed as late apoptotic cells at 5 uM incubated for 48 hrs by Annexin V-FITC/PI staining based flow cytometric analysis (reference value: 4.38 %); assay type: functional
BXPC-3 [23] = assay: Induction of apoptosis in human BXPC-3 cells assessed as necrotic cells at 5 uM incubated for 48 hrs by Annexin V-FITC/PI staining based flow cytometric analysis (reference value: 1.65 %); assay type: functional
MDA-MB-231 [24] = assay: Inhibition of cell proliferation in human MDA-MB-231 cells assessed as decrease in c-Myc protein level at 5 uM incubated for 48 hrs by IHC analysis; assay type: functional, cell-based
MDA-MB-231 [25] = assay: Inhibition of cell proliferation in human MDA-MB-231 cells assessed as decrease in c-Myc mRNA level at 5 uM incubated for 48 hrs by qRT-PCR analysis; assay type: functional, cell-based
BXPC-3 [26] = assay: Inhibition of cell proliferation in human BXPC-3 cells assessed as decrease in c-Myc protein level at 5 uM incubated for 48 hrs by IHC analysis; assay type: functional, cell-based
BXPC-3 [27] = assay: Inhibition of cell proliferation in human BXPC-3 cells assessed as decrease in c-Myc mRNA level at 5 uM incubated for 48 hrs by qRT-PCR analysis; assay type: functional, cell-based
BXPC-3 [28] = assay: Antitumor activity against human BXPC-3 cells xenografted in Balb/c nude mouse assessed as reduction in tumor growth at 60 mg/kg, ip administered daily for 30 days; assay type: functional, organism-based; conditions: time 30.0 day
[29] = Toxicity in Balb/c nude mouse xenografted with human BXPC-3 cells assessed as effect on body weight at 60 mg/kg, ip administered daily for 30 days; assay type: organism-based; conditions: in vivo, 720 h, time 30 day
Mus musculus [30] = assay: In vivo inhibition of EZH2 in Balb/c nude mouse xenografted with human BXPC-3 cells assessed as reduction in H3K27me3 level in tumor at 60 mg/kg, ip administered daily for 30 days by IHC analysis; assay type: functional, organism-based; conditions: time 30.0 day
Mus musculus [31] = assay: In vivo inhibition of EZH2 in Balb/c nude mouse xenografted with human BXPC-3 cells assessed as increase in H3K27ac level in tumor at 60 mg/kg, ip administered daily for 30 days by IHC analysis; assay type: functional, organism-based; conditions: time 30.0 day
[32] = target: T2, Histone-lysine N-methyltransferase EZH2; assay: Inhibition of EZH2 (unknown origin) by radiometric assay
Target sequence in this assay (Q15910 whole entry): as the sequence (Q15910 whole entry, looked up) above

[33] = target: Bromodomain-containing protein 4 (Homo sapiens, UniProt O60885); assay: Inhibition of BRD4 (unknown origin) by HTRF analysis

Structure (SMILES): CCC(C)n1cc(C)c2c(C(=O)NCc3c(C)cc(C)[nH]c3=O)cc(-c3ccc(N4CCNCC4)nc3)cc21 (stereo unspecified)
- IC50 [1]: 124 nM
- inhibition [2]: Active
- inhibition [3]: Active
- inhibition [4]: Active
- inhibition [5]: Active
- inhibition (MDA-MB-231 [6]): Active
- inhibition (MDA-MB-231 [7]): Active
- inhibition (BXPC-3 [8]): Active
- inhibition (BXPC-3 [9]): Active
- inhibition (MDA-MB-231 [10]): Dose-Dependent Effect
- inhibition (BXPC-3 [11]): Dose-Dependent Effect
- inhibition (MDA-MB-231 [12]): inactive
- inhibition (MDA-MB-231 [13]): inactive
- inhibition (BXPC-3 [14]): inactive
- inhibition (BXPC-3 [15]): inactive
- viability at 5 µM (MDA-MB-231 [16]): 97%
- Activity (MDA-MB-231 [17]): 1.83%
- Activity (MDA-MB-231 [18]): 0.92%
- Activity (MDA-MB-231 [19]): 0.3%
- viability at 5 µM (BXPC-3 [20]): 91.9%
- Activity (BXPC-3 [21]): 3.18%
- Activity (BXPC-3 [22]): 3.86%
- Activity (BXPC-3 [23]): 0.98%
- inhibition (MDA-MB-231 [24]): inactive
- inhibition (MDA-MB-231 [25]): inactive
- inhibition (BXPC-3 [26]): inactive
- inhibition (BXPC-3 [27]): inactive
- Activity (BXPC-3 [28]): inactive
- Activity [29]: Non-Toxic
- inhibition (Mus musculus [30]): Active
- inhibition (Mus musculus [31]): Active

Structure (SMILES): CCC(C)n1cc(C)c2c(C(=O)NCc3c4c(c(C)[nH]c3=O)CCCC4)cc(-c3cn(C)c(=O)c4[nH]ccc34)cc21 (stereo unspecified)
- IC50 [32]: 7.9 nM
- IC50 [33]: > 300 nM

Structure (SMILES): Cc1cc(C)c(CNC(=O)c2cc(-c3cn(C)c(=O)c4[nH]ccc34)cc3c2ccn3C2CCCC2)c(=O)[nH]1
- IC50 [32]: 5 nM
- IC50 [33]: 278 nM

Structure (SMILES): Cc1[nH]c(=O)c(CNC(=O)c2cc(-c3cn(C)c(=O)c4[nH]ccc34)cc3c2ccn3C(C)C)c2c1CCCC2
- IC50 [32]: 12.3 nM
- IC50 [33]: > 300 nM

Structure (SMILES): Cc1[nH]c(=O)c(CNC(=O)c2cc(-c3cn(C)c(=O)c4[nH]ccc34)cc3c2ccn3C2CCCC2)c2c1CCCC2
- IC50 [32]: 8.3 nM
- IC50 [33]: > 300 nM

Structure (SMILES): Cc1cc(C)c(CNC(=O)c2cc(-c3cn(C)c(=O)c4[nH]ccc34)cc3c2ccn3C(C)C)c(=O)[nH]1
- IC50 [32]: 5.7 nM
- IC50 [33]: 214 nM

Structure (SMILES): Cc1cc(C)c(CNC(=O)c2cc(-c3cn(C)c(=O)c4[nH]ccc34)cc3c2c(C)cn3CC2CCCCC2)c(=O)[nH]1
- IC50 [32]: 12 nM
- IC50 [33]: > 300 nM

Structure (SMILES): Cc1[nH]c(=O)c(CNC(=O)c2cc(-c3cn(C)c(=O)c4[nH]ccc34)cc3c2c(C)cn3CC2CCCCC2)c2c1CCCC2
- IC50 [32]: > 100 nM
- IC50 [33]: > 300 nM

Structure (SMILES): CCC(C)n1ccc2c(C(=O)NCc3c4c(c(C)[nH]c3=O)CCCC4)cc(-c3cn(C)c(=O)c4[nH]ccc34)cc21 (stereo unspecified)
- IC50 [32]: 5.2 nM
- IC50 [33]: > 300 nM

Structure (SMILES): Cc1[nH]c(=O)c(CNC(=O)c2cc(-c3cn(C)c(=O)c4[nH]ccc34)cc3[nH]cc(C)c23)c2c1CCCC2
- IC50 [32]: > 100 nM
- IC50 [33]: > 300 nM

Structure (SMILES): CCCC(C)n1ccc2c(C(=O)NCc3c4c(c(C)[nH]c3=O)CCCC4)cc(-c3cn(C)c(=O)c4[nH]ccc34)cc21 (stereo unspecified)
- IC50 [32]: 9.3 nM
- IC50 [33]: > 300 nM
